Assay results: patent US10047051B2, “Substituted pyridines and method of use” (AbbVie S.á{acute over (.)}r.l., priority 2015, dated 2018)

Tests used:
CFTR G551D mutant = biological target: T1, CFTR G551D mutant (Homo sapiens, UniProt P13569, G551D); assay: YFP-halide influx assay for the CFTR-G551D mutation (HEK293 cells); format: cell-based; conditions: forskolin 10.67 μM
T1 construct: expressed in transfected cells; host or cells: HEK293 cells, reverse transfection with plasmids
Outline: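 Channel opening read as I⁻-driven quenching of a YFP H148Q/I152L/F47L reporter over 7 s post-injection, expressed as 1−F/F0 and fitted against concentration for EC50. Cells were HEK293 co-transfected at seeding with G551D CFTR plus reporter, then grown 24 h at 37 °C, 5% CO2.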

CFTR ΔF508 mutant = biological target: T2, CFTR ΔF508 mutant (Homo sapiens, UniProt P13569, DEL508-508); assay: YFP-halide influx assay for the CFTR-ΔF508 mutation (CFBE41o- cells); format: cell-based; conditions: forskolin 10.67 μM; for EC50: from (1−F/F0) vs concentration plot
T2 construct: expressed in transfected cells; host or cells: CFBE41o- cells, adenoviral transduction
Outline: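 EC50 derived from plotting 1−F/F0 (fluorescence 36 s after iodide injection over pre-injection value) against compound concentration. Cells: CFBE41o- transduced with ΔF508-CFTR and YFP quench reporter, corrected 24 h at 27° C or by a CFTR modulator at 37° C.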

T2 sequence (P13569 with tags, fused parts or gaps DEL508-508): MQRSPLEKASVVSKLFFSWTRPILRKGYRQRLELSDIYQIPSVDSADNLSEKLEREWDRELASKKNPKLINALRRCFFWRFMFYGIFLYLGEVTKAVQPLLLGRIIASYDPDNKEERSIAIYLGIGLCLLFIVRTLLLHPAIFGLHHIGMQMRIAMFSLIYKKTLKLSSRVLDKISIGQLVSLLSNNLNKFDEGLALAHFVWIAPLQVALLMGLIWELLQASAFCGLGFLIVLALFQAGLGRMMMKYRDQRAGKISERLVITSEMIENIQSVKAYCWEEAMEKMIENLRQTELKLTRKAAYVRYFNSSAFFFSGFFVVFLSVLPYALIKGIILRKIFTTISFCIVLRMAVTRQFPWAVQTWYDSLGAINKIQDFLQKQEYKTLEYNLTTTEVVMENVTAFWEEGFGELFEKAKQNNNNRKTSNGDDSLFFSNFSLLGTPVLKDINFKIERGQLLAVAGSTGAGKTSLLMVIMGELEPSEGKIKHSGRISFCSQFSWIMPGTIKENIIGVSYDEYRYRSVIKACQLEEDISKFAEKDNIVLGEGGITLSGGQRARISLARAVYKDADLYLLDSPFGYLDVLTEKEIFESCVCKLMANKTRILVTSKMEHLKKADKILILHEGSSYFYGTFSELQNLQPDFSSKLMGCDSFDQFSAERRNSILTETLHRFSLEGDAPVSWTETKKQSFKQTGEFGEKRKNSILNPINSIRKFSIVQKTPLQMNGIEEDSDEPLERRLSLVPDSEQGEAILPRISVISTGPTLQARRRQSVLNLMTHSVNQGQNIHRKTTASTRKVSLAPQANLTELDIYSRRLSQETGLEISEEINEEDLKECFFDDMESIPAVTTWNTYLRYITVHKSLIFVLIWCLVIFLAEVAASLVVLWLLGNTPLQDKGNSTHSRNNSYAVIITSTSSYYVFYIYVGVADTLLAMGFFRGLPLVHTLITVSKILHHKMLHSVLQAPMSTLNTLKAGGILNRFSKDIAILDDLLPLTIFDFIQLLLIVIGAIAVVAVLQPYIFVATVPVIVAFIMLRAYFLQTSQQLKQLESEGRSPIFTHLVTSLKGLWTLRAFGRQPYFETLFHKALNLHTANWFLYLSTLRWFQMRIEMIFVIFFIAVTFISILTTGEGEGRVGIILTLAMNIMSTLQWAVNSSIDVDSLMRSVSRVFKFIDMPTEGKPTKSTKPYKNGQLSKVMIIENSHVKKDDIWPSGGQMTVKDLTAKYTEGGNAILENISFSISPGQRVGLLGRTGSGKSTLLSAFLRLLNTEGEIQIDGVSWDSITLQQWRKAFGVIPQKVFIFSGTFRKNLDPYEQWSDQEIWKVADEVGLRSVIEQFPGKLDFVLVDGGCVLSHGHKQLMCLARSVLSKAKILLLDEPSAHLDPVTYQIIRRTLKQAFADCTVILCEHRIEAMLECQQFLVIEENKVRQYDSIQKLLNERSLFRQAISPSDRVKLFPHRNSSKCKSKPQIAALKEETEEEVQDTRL
T1 sequence (P13569 whole entry G551D): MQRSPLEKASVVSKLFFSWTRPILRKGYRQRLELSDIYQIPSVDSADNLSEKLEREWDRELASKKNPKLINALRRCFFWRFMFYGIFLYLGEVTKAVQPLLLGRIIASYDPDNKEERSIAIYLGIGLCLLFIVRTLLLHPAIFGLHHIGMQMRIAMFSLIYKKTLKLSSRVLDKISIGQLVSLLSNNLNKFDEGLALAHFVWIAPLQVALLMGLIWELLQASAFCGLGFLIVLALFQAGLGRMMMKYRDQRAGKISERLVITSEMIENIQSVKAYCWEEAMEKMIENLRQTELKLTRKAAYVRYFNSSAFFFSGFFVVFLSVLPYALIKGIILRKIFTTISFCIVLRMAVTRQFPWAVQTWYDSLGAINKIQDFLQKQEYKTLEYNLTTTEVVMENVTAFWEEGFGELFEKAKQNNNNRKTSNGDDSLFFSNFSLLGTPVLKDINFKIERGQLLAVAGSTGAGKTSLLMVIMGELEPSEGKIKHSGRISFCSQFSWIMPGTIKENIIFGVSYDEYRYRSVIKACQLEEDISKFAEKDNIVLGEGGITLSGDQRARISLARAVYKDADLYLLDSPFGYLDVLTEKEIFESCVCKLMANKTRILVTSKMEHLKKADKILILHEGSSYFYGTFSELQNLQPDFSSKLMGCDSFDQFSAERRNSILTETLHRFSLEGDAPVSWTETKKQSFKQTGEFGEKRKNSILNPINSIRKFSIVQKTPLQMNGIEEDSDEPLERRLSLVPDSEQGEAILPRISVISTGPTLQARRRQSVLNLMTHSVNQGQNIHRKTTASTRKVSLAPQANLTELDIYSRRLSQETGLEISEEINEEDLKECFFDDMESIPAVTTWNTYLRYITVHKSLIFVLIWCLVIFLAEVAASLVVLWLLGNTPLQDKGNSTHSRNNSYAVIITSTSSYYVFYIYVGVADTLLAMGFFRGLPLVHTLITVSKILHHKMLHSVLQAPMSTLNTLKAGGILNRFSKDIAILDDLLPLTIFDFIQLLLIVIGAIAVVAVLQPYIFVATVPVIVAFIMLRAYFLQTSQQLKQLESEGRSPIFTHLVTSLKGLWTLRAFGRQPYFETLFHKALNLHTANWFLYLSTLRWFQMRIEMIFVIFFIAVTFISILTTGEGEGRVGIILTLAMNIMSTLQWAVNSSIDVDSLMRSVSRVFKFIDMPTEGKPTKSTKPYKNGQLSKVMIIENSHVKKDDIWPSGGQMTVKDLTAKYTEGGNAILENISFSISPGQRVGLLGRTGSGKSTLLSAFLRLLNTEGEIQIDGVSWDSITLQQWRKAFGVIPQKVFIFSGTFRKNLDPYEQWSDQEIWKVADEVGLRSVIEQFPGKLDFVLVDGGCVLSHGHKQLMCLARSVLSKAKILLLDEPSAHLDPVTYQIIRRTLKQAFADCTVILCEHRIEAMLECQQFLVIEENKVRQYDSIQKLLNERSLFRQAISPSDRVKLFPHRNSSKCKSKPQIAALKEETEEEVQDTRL

SMILES	% Activation (CFTR G551D mutant)	EC50 (CFTR G551D mutant)	% Activation (CFTR ΔF508 mutant)	EC50 (CFTR ΔF508 mutant)
Nc1cc(S(=O)(=O)c2ccccc2OC(F)(F)F)cnc1C(=O)N1CC(O)C1 [Compound 76, (3-amino-5-{[2-(trifluoromethoxy)phenyl]sulfonyl}pyridin-2-yl)(3-hydroxyazetidin-1-yl)methanone]	54.3%	> 3.33 µM	112.0%	0.0043 µM
CN1CC[C@@H](NC(=O)c2ncc(S(=O)(=O)c3ccc(OC(F)(F)F)cc3)cc2N)C1 [Compound 208, 3-amino-N-[(3R)-1-methylpyrrolidin-3-yl]-5-{[4-(trifluoromethoxy)phenyl]sulfonyl}pyridine-2-carboxamide]	20.0%	> 10 µM	70.5%	0.29 µM
CC(C)(C)c1ccc(S(=O)(=O)c2cnc(C(=O)NCC(O)C(F)(F)F)c(N)c2)cc1 (stereo not drawn) [Compound 247, 3-amino-5-[(4-tert-butylphenyl)sulfonyl]-N-(3,3,3-trifluoro-2-hydroxypropyl)pyridine-2-carboxamide]	98.7%	0.219 µM	114.5%	0.0043 µM
Nc1cc(S(=O)(=O)N2CC[C@H](F)C2)cnc1C(=O)NCC(O)C(F)(F)F (stereo partly drawn) [Compound 180, 3-amino-5-{[(3S)-3-fluoropyrrolidin-1-yl]sulfonyl}-N-(3,3,3-trifluoro-2-hydroxypropyl)pyridine-2-carboxamide]	30.2%	> 10 µM	97.0%	0.107 µM
Nc1cc(S(=O)(=O)c2ccc(C(F)(F)F)cc2)cnc1C(=O)NCC1(O)CC1 [Compound 228, 3-amino-N-[(1-hydroxycyclopropyl)methyl]-5-{[4-(trifluoromethyl)phenyl]sulfonyl}pyridine-2-carboxamide]	62.6%	1.04 µM	123.3%	0.0085 µM
CC1(C)CN(C(=O)c2ncc(S(=O)(=O)c3ccc(C(F)(F)F)cc3)cc2N)C1 [Compound 110, (3-amino-5-{[4-(trifluoromethyl)phenyl]sulfonyl}pyridin-2-yl)(3,3-dimethylazetidin-1-yl)methanone]	83.6%	1.14 µM	116.0%	0.0335 µM
Nc1cc(S(=O)(=O)c2ccc(OC(F)(F)F)cc2)cnc1C(=O)NCCc1ccco1 [Compound 141, 3-amino-N-[2-(furan-2-yl)ethyl]-5-{[4-(trifluoromethoxy)phenyl]sulfonyl}pyridine-2-carboxamide]	60.4%	0.795 µM	100.6%	0.109 µM
Nc1cc(S(=O)(=O)c2ccc(C(F)(F)F)cc2F)cnc1C(=O)N1CC(OC(F)F)C1 [Compound 161, (3-amino-5-{[2-fluoro-4-(trifluoromethyl)phenyl]sulfonyl}pyridin-2-yl)[3-(difluoromethoxy)azetidin-1-yl]methanone]	45.8%	0.681 µM	97.3%	0.0215 µM
CC(C)NC(=O)CNC(=O)c1ncc(S(=O)(=O)c2ccc(OC(F)(F)F)cc2F)cc1N [Compound 135, 3-amino-5-{[2-fluoro-4-(trifluoromethoxy)phenyl]sulfonyl}-N-[2-oxo-2-(propan-2-ylamino)ethyl]pyridine-2-carboxamide]	43.5%	5.77 µM	108.7%	0.0085 µM
Nc1cc(S(=O)(=O)c2ccc(F)cc2)cnc1C(=O)NCCC(O)C(F)(F)F (stereo not drawn) [Compound 72, 3-amino-5-[(4-fluorophenyl)sulfonyl]-N-(4,4,4-trifluoro-3-hydroxybutyl)pyridine-2-carboxamide]	44.2%	> 3.33 µM	89.3%	0.0218 µM
Nc1cc(S(=O)(=O)c2ccc(C(F)(F)F)cc2)cnc1C(=O)N[C@@H]1CCC[C@@H]1O [Compound 205, 3-amino-N-[(1R,2S)-2-hydroxycyclopentyl]-5-{[4-(trifluoromethyl)phenyl]sulfonyl}pyridine-2-carboxamide]	37.6%	–	96.5%	0.0599 µM
Nc1cc(S(=O)(=O)c2ccc(OC(F)(F)F)cc2)cnc1C(=O)NCC1CC1 [Compound 155, 3-amino-N-(cyclopropylmethyl)-5-{[4-(trifluoromethoxy)phenyl]sulfonyl}pyridine-2-carboxamide]	80.2%	0.987 µM	108.0%	0.0812 µM
Nc1cc(S(=O)(=O)c2ccc(C(F)(F)F)cc2F)cnc1C(=O)N1CC(F)(F)C1 [Compound 164, (3-amino-5-{[2-fluoro-4-(trifluoromethyl)phenyl]sulfonyl}pyridin-2-yl)(3,3-difluoroazetidin-1-yl)methanone]	71.5%	0.683 µM	102.0%	0.0082 µM
C[C@H](O)CNC(=O)c1nc(C2CC2)c(S(=O)(=O)c2ccc(OC(F)(F)F)cc2)cc1N [Compound 290, 3-amino-6-cyclopropyl-N-[(2S)-2-hydroxypropyl]-5-{[4-(trifluoromethoxy)phenyl]sulfonyl}pyridine-2-carboxamide]	73.2%	0.473 µM	88.2%	0.003 µM
Nc1cc(S(=O)(=O)c2ccc(C(F)(F)F)cc2)cnc1C(=O)NCC(O)COCC1CC1 (stereo not drawn) [Compound 131, 3-amino-N-[3-(cyclopropylmethoxy)-2-hydroxypropyl]-5-{[4-(trifluoromethyl)phenyl]sulfonyl}pyridine-2-carboxamide]	68.6%	0.817 µM	110.2%	0.0128 µM
CN(CCC(F)(F)F)S(=O)(=O)c1cnc(C(=O)NCC(O)C(F)(F)F)c(N)c1 (stereo not drawn) [Compound 225, 3-amino-5-[methyl(3,3,3-trifluoropropyl)sulfamoyl]-N-(3,3,3-trifluoro-2-hydroxypropyl)pyridine-2-carboxamide]	44.2%	2.21 µM	106.7%	0.0309 µM
Nc1cc(S(=O)(=O)c2ccc(C(F)(F)F)cc2F)cnc1C(=O)NCC(O)COCC1CC1 (stereo not drawn) [Compound 132, 3-amino-N-[3-(cyclopropylmethoxy)-2-hydroxypropyl]-5-{[2-fluoro-4-(trifluoromethyl)phenyl]sulfonyl}pyridine-2-carboxamide]	79.2%	0.395 µM	103.5%	0.0051 µM
Nc1cc(S(=O)(=O)c2ccc(OC(F)(F)F)cc2)cnc1C(=O)N1CC2(CCCOC2)C1 [Compound 121, (3-amino-5-{[4-(trifluoromethoxy)phenyl]sulfonyl}pyridin-2-yl)(6-oxa-2-azaspiro[3.5]non-2-yl)methanone]	88.6%	1.33 µM	102%	0.113 µM
Nc1cc(S(=O)(=O)c2ccc(OC(F)(F)F)cc2)cnc1C(=O)N[C@@H]1CCOC1 [Compound 128, 3-amino-N-[(3R)-tetrahydrofuran-3-yl]-5-{[4-(trifluoromethoxy)phenyl]sulfonyl}pyridine-2-carboxamide]	41.7%	> 10 µM	95.0%	0.0852 µM
Nc1cc(S(=O)(=O)c2ccc(C(F)(F)F)cc2F)cnc1C(=O)NCCO [Compound 219, 3-amino-5-{[2-fluoro-4-(trifluoromethyl)phenyl]sulfonyl}-N-(2-hydroxyethyl)pyridine-2-carboxamide]	44.7%	1.05 µM	99.8%	0.0192 µM
CC1CCCN(S(=O)(=O)c2cnc(C(=O)NCC(O)C(F)(F)F)c(N)c2)C1 (stereo not drawn) [Compound 182, 3-amino-5-[(3-methylpiperidin-1-yl)sulfonyl]-N-(3,3,3-trifluoro-2-hydroxypropyl)pyridine-2-carboxamide]	51.3%	0.645 µM	112.7%	0.0047 µM
Nc1cc(S(=O)(=O)c2ccc(C(F)(F)F)cc2)cnc1C(=O)NC[C@H](O)C(F)(F)F [Compound 64, 3-amino-N-[(2S)-3,3,3-trifluoro-2-hydroxypropyl]-5-{[4-(trifluoromethyl)phenyl]sulfonyl}pyridine-2-carboxamide]	72.5%	0.16 µM	107.0%	0.0013 µM
COc1ccc(CN(C)S(=O)(=O)c2cnc(C(=O)NCC(O)C(F)(F)F)c(N)c2)cc1 (stereo not drawn) [Compound 138, 3-amino-5-[(4-methoxybenzyl)(methyl)sulfamoyl]-N-(3,3,3-trifluoro-2-hydroxypropyl)pyridine-2-carboxamide]	49.6%	0.684 µM	94.5%	0.0179 µM
Nc1cc(S(=O)(=O)c2ccc(C(F)(F)F)cc2)c(C2CC2)nc1C(=O)NCCO [Compound 258, 3-amino-6-cyclopropyl-N-(2-hydroxyethyl)-5-{[4-(trifluoromethyl)phenyl]sulfonyl}pyridine-2-carboxamide]	108.0%	0.517 µM	119.0%	0.0099 µM
Nc1cc(S(=O)(=O)c2ccc(OC(F)(F)F)cc2)cnc1C(=O)NCC(O)C1CCOC1 (stereo not drawn) [Compound 73, 3-amino-N-[2-hydroxy-2-(tetrahydrofuran-3-yl)ethyl]-5-{[4-(trifluoromethoxy)phenyl]sulfonyl}pyridine-2-carboxamide]	61.0%	> 3.33 µM	102.0%	0.0814 µM
